{"source": "paper PMC8162438", "about": "“Cancer cell-selective modulation of mitochondrial respiration and metabolism by potent organogold(III) dithiocarbamates” (Chemical Science, 2020)", "key": {"MDA-MB-231": {"system": "MDA-MB-231", "assay": "Cell cycle analysis by flow cytometry (PI)", "assay_type": "cell-based", "conditions": "MDA-MB-231, 0.1 μM", "description": "The effect of 2a on cell cycle was studied by flow cytometry. We observed a time-dependent increase in G0/G1 cell cycle population over 24–72 h period. […] There are several small molecule drug candidates in clinical trials as inhibitors of CDK4/6 and induce G1 cell cycle arrest.[107–110] Thus, our finding is relevant for the design of gold based therapies for refractory tumors such as TNBC.[107–110] After 24 h, a 10% increase can be seen for G1 cell population as well as a 6% decrease in S phase in comparison to the control (Fig. 12B and C). […] The mitochondria control cellular ATP production, it is therefore possible that inhibition of mitochondria respiration and consequently low ATP levels lead to cell cycle arrest.[112–114] […]\nwith a final volume of 100 µL and incubated overnight at 37 °C. Compound 2a was prepared as a stock in DMSO and diluted to a working concentration of 200 µM with Seahorse XF96 assay buffer and then subsequently serial diluted by 3x to achieve multiple concentrations. The assay was performed using a pneumatic injection method of 2a, with the final injection concentrations of 0.1, 1, 3 , and 11 µM. This was followed by injection of oligomycin (1.5 µM), FCCP (0.6 µM) and rotenone/ antimycin A (0.5 µ M). […]\nsupplementary information of the following papers. 15-16\nThe Seahorse XF96 analysis for MRC5 was performed in an identical manner to MDA-MB-231 except that MRC5 cells were seeded at a density of 50,000 cells/well and an FCCP injection concentration of 0.6 µ M was used.\nCell Cycle Analysis. MDA-MB-231 cells were seeded at a density of 2 x 10^5 cells/well in a 6 well clear bottom plate with a final media volume of 2 mL and allowed to adhere overnight 37 °C. Compound 2a was prepared fresh as a stock in DMSO and added at a final concentration of 0.1 µM with a final volume of 2.5 mL. […] These solutions were stored at 4 °C until ready for analysis. […] The samples were then analyzed with FACS. […]"}, "MRC5": {"system": "MRC5", "assay": "Seahorse XF96 mitochondria stress test (OCR), MRC5", "assay_type": "cell-based, human", "conditions": "MRC5, 0.1–3 μM"}}}
{"smiles": "C[N+](C)=C1[S][Au-2]2([S]1)[c]1ccccc1Cc1cccc[n+]12.F[P-](F)(F)(F)(F)F", "note": "(stereo not shown) [2a]", "values": [{"measurement": "Decrease in S phase versus control", "setting": "MDA-MB-231; 24 h", "result": 6, "unit": "%"}, {"measurement": "Increase in G1 cell population versus control", "setting": "MDA-MB-231; 24 h", "result": 10, "unit": "%"}, {"measurement": "G1 phase change over 72 h", "setting": "MDA-MB-231; 72 h", "result": "significant increase in G1 phase"}, {"measurement": "Effect on OCR of MRC5", "setting": "MRC5", "result": "did not impact the OCR"}]}
